Test results as given in patent publication US5145855A, “6- and 7-deoxyforskolin and derivatives thereof” (Hoechst Roussel Pharmaceuticals, Inc., priority 1991, dated 1992).
Converted amounts (≈) assume the structure as drawn.

Test system: isolated guinea pig left atrium
Experiment: electrically-driven guinea pig left atrium contractile force assay (positive inotropic effect)
Conditions: for Ionotropic Activity (% Change of Contractile Force): at the concentration of the same line (extrapolated ED50: A 0.04, B 0.073 μg/ml)
Procedure: The forskolin derivatives of the present invention are useful in the treatment of cardiac failure by virtue of their ability to elicit a positive inotropic effect as determined in the isolated guinea pig atria contractile force assay. The electrically-driven guinea pig left atrium assay is performed as follows: Male guinea pigs weighing 200-300 grams are stunned with a blow to the back of the head. The heart is rapidly removed and placed in a petri dish containing Krebs solution. The ventricle is separated from the atria, the atria are sectioned in the right and left atria, and double-O silk ligatures are tied to the apex of the left atrium. The atrium is fixed to a pair of platinum plate electrodes and suspended in a 20-ml tissue bath containing Kreb's solution aerated with 95% oxygen-5% carbon dioxide at 37° C. One end of the atrium is fixed to a hook in the electrode and the other end is connected to a Grass FTO3 force displacement transducer. Resting tension and stabilization time are the same as described above. The atrium is stimulated at 3 Hz, 0.5 msec duration at supramaximal voltage (constant current) via a Grass S88 stimulator and constant current unit. Force of contraction is continuously displaced on a Gould recorder. Test drug is prepared and is added to the tissue baths. Change in contractile force from baseline is determined for each concentration, and the change in contractile force (g) is plotted against accumulated drug concentration (μg/ml) The activity of the test drug, i.e., the increase in contractile force (g) from the stabilized force expressed as the percentage change at a given concentration is determined graphically, as is the ED50 -value, i.e., the extrapolated dose (μg/ml) which increases the contractile force by 50% over the stabilized rate.

EC50 (Cavia porcellus, isolated left atrium, stimulated at 3 Hz, 37° C., Krebs solution, read-out: Extrapolated ED50 value (concentration which increases the contractile force by 50%)) [µg/mL] | SMILES | Ionotropic Activity (% Change of Contractile Force) [%] | Extrapolated ED50 value (concentration which increases the contractile force by 50%) (isolated left atrium, stimulated at 3 Hz, 37° C., Krebs solution) [µg/mL]
 | C=CC1(C)CC(=O)C2(O)C(C)(O1)C(Oc1ncccn1)CC1C(C)(C)CCC(O)C12C.Cl (stereo not shown) [A, 6-Deoxy-7-desacetyl-7-(pyrimidin-2-yl)forskolin hydrochloride] | 50 | 0.04
0.073 (≈ 0.178 µM) | C=C[C@@]1(C)CC(=O)[C@]2(O)[C@@]3(C)[C@@H](O)CCC(C)(C)[C@@H]3[C@H](O)[C@H](OC(C)=O)[C@@]2(C)O1 [B, Forskolin] | 50 | 
